Source: PubChem BioAssay AID1195 (EPA DSSTox, 2008)

System: human maximum recommended daily dose, FDA database
Test: DSSTox (FDAMDD) FDA Maximum (Recommended) Daily Dose Database
Settings: hits give low values
How it was run: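 MRDD values come from clinical trials with daily oral dosing, usually for 3–12 months, for the average adult, in mg/day converted to mg/kg-bw/day assuming 60 kg. Antineoplastic mg/m2 doses are divided by 37. Activity score maps log10(1/MRDD mmol) onto 1–100.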

[1] = TherapeuticCategory: antihistaminic
[2] = TherapeuticCategory: CNS stimulant
[3] = TherapeuticCategory: antineoplastic
[4] = TherapeuticCategory: antibacterial

CCOC(=O)N1CCC(=C2c3ccc(Cl)cc3CCc3cccnc32)CC1
maximum recommended daily dose (mmol/kg-bw/day) [1]: 0.000436

OC(c1ccccc1)(c1ccccc1)C1CCCCN1 (stereo unspecified)
maximum recommended daily dose (mmol/kg-bw/day) [2]: 0.000374

C[N+]1(C)CCC(OC(=O)CC(O)(c2ccccc2)C2CCCC2)C1 (stereo unspecified)
maximum recommended daily dose (mmol/kg-bw/day) (TherapeuticCategory: anticholinergic): 0.000162

CC(CN1CC(=O)NC(=O)C1)N1CC(=O)NC(=O)C1 (stereo unspecified)
maximum recommended daily dose (mmol/kg-bw/day) [3]: 0.0155

Nc1ncnc2nc[nH]c12
maximum recommended daily dose (mmol/kg-bw/day) (TherapeuticCategory: research): 0.111

CN(C)CCOC(C)(c1ccccc1)c1ccccn1 (stereo unspecified)
maximum recommended daily dose (mmol/kg-bw/day) (TherapeuticCategory: antihistaminic, hypnotic): 0.00154

O=C1CCC(N2C(=O)c3ccccc3C2=O)C(=O)N1 (stereo unspecified)
maximum recommended daily dose (mmol/kg-bw/day) (TherapeuticCategory: sedative, hypnotic): 0.0258

CN1CCC(OC(c2ccccc2)c2ccccc2)CC1
maximum recommended daily dose (mmol/kg-bw/day) [1]: 0.00118

CC1CCN(CCCC(=O)c2ccc(F)cc2)CC1
maximum recommended daily dose (mmol/kg-bw/day) (TherapeuticCategory: neuroleptic): 0.0253

c1ccc(C2(N3CCCCC3)CCCCC2)cc1
maximum recommended daily dose (mmol/kg-bw/day) (TherapeuticCategory: analgesic, anesthetic): 0.000822

CC(CN1c2ccccc2Sc2ccccc21)N(C)C (stereo unspecified)
maximum recommended daily dose (mmol/kg-bw/day) [1]: 0.00587

CN(C)CC[C@@H](c1ccc(Br)cc1)c1ccccn1
maximum recommended daily dose (mmol/kg-bw/day) [1]: 0.00251

CCC[C@@H]1C[C@@H](C(=O)N[C@@H]([C@H]2O[C@H](SC)[C@H](O)[C@@H](O)[C@H]2O)[C@H](C)Cl)N(C)C1
maximum recommended daily dose (mmol/kg-bw/day) [4]: 0.0706

CCC(=O)O[C@](Cc1ccccc1)(c1ccccc1)[C@H](C)CN(C)C
maximum recommended daily dose (mmol/kg-bw/day) (TherapeuticCategory: narcotic analgesic): 0.0191

CCSc1ccc2c(c1)N(CCCN1CCN(C)CC1)c1ccccc1S2
maximum recommended daily dose (mmol/kg-bw/day) (TherapeuticCategory: antiemetic): 0.00125

Cc1onc(-c2ccccc2Cl)c1C(=O)N[C@@H]1C(=O)N2[C@@H]1SC(C)(C)[C@@H]2C(=O)O
maximum recommended daily dose (mmol/kg-bw/day) [4]: 0.0764

C=C1/C(=C/C=C2/CCC[C@]3(C)[C@@H]([C@H](C)CCCC(C)C)CC[C@@H]23)C[C@@H](O)C[C@@H]1O
maximum recommended daily dose (mmol/kg-bw/day) (TherapeuticCategory: vitamin D source): 7.49e-06

CCOc1ccc(Cc2nccc3cc(OCC)c(OCC)cc23)cc1OCC
maximum recommended daily dose (mmol/kg-bw/day) (TherapeuticCategory: antispasmodic): 0.0253

Cc1noc(NS(=O)(=O)c2ccc(N)cc2)c1C
maximum recommended daily dose (mmol/kg-bw/day) [4]: 0.25

O=C(O)C(S)C(S)C(=O)O (stereo unspecified)
maximum recommended daily dose (mmol/kg-bw/day) (TherapeuticCategory: antidote for heavy metal poisoning, radioactive imaging agent): 0.0549

C[C@](O)(CS(=O)(=O)c1ccc(F)cc1)C(=O)Nc1ccc(C#N)c(C(F)(F)F)c1
maximum recommended daily dose (mmol/kg-bw/day) (TherapeuticCategory: antiandrogen, antineoplastic): 0.00194

Nc1ncnc2c1ncn2[C@@H]1O[C@H](COP(=O)(O)O)[C@@H](O)[C@H]1O
maximum recommended daily dose (mmol/kg-bw/day) (TherapeuticCategory: antiarrhythmic): 0.000959

CCC[C@H](N[C@@H](C)C(=O)N1[C@H](C(=O)O)C[C@@H]2CCCC[C@@H]21)C(=O)OCC
maximum recommended daily dose (mmol/kg-bw/day) (TherapeuticCategory: antihypertensive, ACE inhibitor): 0.000361

CNNCc1ccc(C(=O)NC(C)C)cc1
maximum recommended daily dose (mmol/kg-bw/day) [3]: 0.0271

C[C@@](Cc1ccc(O)c(O)c1)(NN)C(=O)O
maximum recommended daily dose (mmol/kg-bw/day) (TherapeuticCategory: antiparkinsonian): 0.00368

OC1C(O)C(O)C(O)C(O)C1O (stereo unspecified)
maximum recommended daily dose (mmol/kg-bw/day) (TherapeuticCategory: vitamin B complex, lipotropic): 0.555

O=C(O)C1CCc2cc(C3CCCCC3)c(Cl)cc21 (stereo unspecified)
maximum recommended daily dose (mmol/kg-bw/day) (TherapeuticCategory: anti inflammatory, antipyretic): 0.00269

CC(C)N=c1cc2n(-c3ccc(Cl)cc3)c3ccccc3nc-2cc1Nc1ccc(Cl)cc1
maximum recommended daily dose (mmol/kg-bw/day) [4]: 0.00703

C=CC1=C(C(=O)O)N2C(=O)[C@@H](NC(=O)/C(=N\OCC(=O)O)c3csc(N)n3)[C@H]2SC1
maximum recommended daily dose (mmol/kg-bw/day) [4]: 0.0293

CCCC(=O)c1ccc2c(c1)N(CCCN1CCN(C)CC1)c1ccccc1S2
maximum recommended daily dose (mmol/kg-bw/day) (TherapeuticCategory: antipsychotic): 0.00408

C#C[C@]1(O)CC[C@H]2[C@@H]3[C@H](C)CC4=C(CCC(=O)C4)[C@H]3CC[C@@]21C
maximum recommended daily dose (mmol/kg-bw/day) (TherapeuticCategory: treatment of menopausal syndrome): 0.000133

CC(=O)N(CC(O)CO)c1c(I)c(C(=O)NCC(O)CO)c(I)c(C(=O)NCC(O)CO)c1I (stereo unspecified)
maximum recommended daily dose (mmol/kg-bw/day) (TherapeuticCategory: diagnostic aid): 0.134

O=C(O)c1cc(=O)c2c(OCC(O)COc3cccc4oc(C(=O)O)cc(=O)c34)cccc2o1
maximum recommended daily dose (mmol/kg-bw/day) (TherapeuticCategory: prophylactic antiasthmatic, antiallergic): 0.0284

O=C(O)CN(CCN(CC(=O)O)CC(=O)O)CC(=O)O
maximum recommended daily dose (mmol/kg-bw/day) (TherapeuticCategory: pharmaceutic aid): 0.24

CN1C(=O)CN=C(c2ccccc2)c2cc(Cl)ccc21
maximum recommended daily dose (mmol/kg-bw/day) (TherapeuticCategory: anxiolytic, skeletal muscle relaxant): 0.00234

Cn1c(=O)c2c(ncn2C)n(C)c1=O
maximum recommended daily dose (mmol/kg-bw/day) [2]: 0.0515
